The source made the active and inactive calls. The calls are words filed in the database; no cut-off is given here.
Columns and labels:
[1] = test system: HGC-27; assay: Antitumor activity against human HGC-27 cells xenografted in female BALB/c nude mouse model assessed as reduction in tumor volume at 30 mg/kg/day, ip administered for 21 days; format: functional, organism-based; details: time 21.0 day
[2] = test system: HGC-27; assay: Anticancer activity against human HGC-27 cells assessed as inhibition of cell proliferation incubated for 72 hrs by MTT assay; format: functional, cell-based; details: HGC-27, 72 h
[3] = test system: HGC-27; assay: Antiproliferative activity against human HGC-27 cells assessed as inhibition of cell viability upto 50 uM by MTT assay; format: functional, cell-based; details: time 24-72 hrs
[4] = test system: MGC-803; assay: Antiproliferative activity against human MGC-803 cells assessed as inhibition of cell viability upto 50 uM by MTT assay; format: functional, cell-based; details: time 24-72 hrs
[5] = test system: HGC-27; assay: Inhibition of colony formation in human HGC-27 cells assessed as decrease in clonogenic ability at 2.5 to 10 uM incubated for 48 hrs by crystal violet staining based analysis; format: functional, cell-based; details: dose 2.5-10 µM
[6] = test system: MGC-803; assay: Induction of apoptosis in human MGC-803 cells assessed as increase in cleaved PARP level incubated for 48 hrs by Western blot analysis; format: functional, cell-based; details: dose 10-20 µM
[7] = test system: MGC-803; assay: Induction of apoptosis in human MGC-803 cells assessed as increase in cleaved caspase 9 level incubated for 48 hrs by Western blot analysis; format: functional, cell-based; details: dose 10-20 µM
[8] = Tmax in Sprague-Dawley rat at 5 mg/kg, po or 5 mg/kg, iv measured after 24 hrs by LC-MS/MS analysis; format: ADME, organism-based; details: in vivo
[9] = molecular target: Cytochrome P450 3A4 (Homo sapiens, UniProt P08684); assay: Inhibition of CYP3A4 in human liver microsomes using testosterone as substrate preincubated for 5 mins followed by NADPH addition and measured after 10 mins by LC-MS/MS analysis; format: ADME, Microsome
Cytochrome P450 3A4, sequence (P08684 whole entry): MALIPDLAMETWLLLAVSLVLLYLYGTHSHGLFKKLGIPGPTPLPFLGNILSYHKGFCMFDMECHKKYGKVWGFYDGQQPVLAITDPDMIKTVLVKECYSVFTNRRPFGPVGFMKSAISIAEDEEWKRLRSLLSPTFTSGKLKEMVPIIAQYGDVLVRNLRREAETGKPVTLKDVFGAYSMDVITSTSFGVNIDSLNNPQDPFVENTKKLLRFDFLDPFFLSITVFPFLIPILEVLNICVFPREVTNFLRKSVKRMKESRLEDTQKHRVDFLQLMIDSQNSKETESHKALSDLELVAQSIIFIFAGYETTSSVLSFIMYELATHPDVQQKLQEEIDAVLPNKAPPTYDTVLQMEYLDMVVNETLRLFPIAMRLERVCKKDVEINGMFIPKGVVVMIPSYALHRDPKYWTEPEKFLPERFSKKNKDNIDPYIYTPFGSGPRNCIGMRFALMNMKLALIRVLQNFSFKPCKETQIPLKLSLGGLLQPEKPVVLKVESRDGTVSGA

C=CS(=O)(=O)N1CCC[C@@H](Nc2nc(N)nc(Nc3cccc(Oc4ccccc4)c3)n2)C1
Activity [1]: Active | IC50 [2]: 9.6 µM | Activity [3]: Time-dependent-effect | Activity [4]: Time-dependent-effect | inhibition [5]: Active | Activity [6]: Dose-dependent-effect | Activity [7]: Dose-dependent-effect | Tmax [8]: 6 min | IC50 [9]: > 100 µM

— ChEMBL document CHEMBL6153141, “Design, Synthesis, and Mechanism Study of Novel BMX Inhibitors Based on the Core of 1,3,5-Triazin-2-Amine for the Treatment of Gastric Carcinoma” (J Med Chem, 2025)
